We go through 27 compounds from patent publication US10392347B2, “2,4-dihydroxy-nicotinamides as APJ agonists” (BRISTOL-MYERS SQUIBB COMPANY, priority 2015, dated 2019).

SMILES strings stand for the structures.

The target in the first experiment is T1, human APJ receptor (Homo sapiens, UniProt P35414).
T1 construct: expressed in transfected cells
T1 sequence (P35414 1-380): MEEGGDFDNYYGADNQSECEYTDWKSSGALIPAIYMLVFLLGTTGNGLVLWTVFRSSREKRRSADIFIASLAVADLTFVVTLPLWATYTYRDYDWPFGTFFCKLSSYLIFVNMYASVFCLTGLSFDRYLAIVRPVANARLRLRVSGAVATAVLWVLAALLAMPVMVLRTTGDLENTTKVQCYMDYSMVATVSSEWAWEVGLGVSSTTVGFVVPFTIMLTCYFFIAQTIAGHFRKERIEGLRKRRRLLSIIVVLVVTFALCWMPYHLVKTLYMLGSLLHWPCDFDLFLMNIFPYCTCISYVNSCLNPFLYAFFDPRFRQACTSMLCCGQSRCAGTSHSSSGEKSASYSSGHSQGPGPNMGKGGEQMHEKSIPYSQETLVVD
Description: Intracellular cAMP accumulation assay (APJ hcAMP, HTRF). Format: cell-based. The conditions noted are these: APJ cAMP EC50 (nM), Table 1; HEK293 cells stably expressing human APJ, forskolin-stimulated cAMP. The protocol:
Intracellular cAMP Accumulation Assay
HEK293 cells stably expressing human APJ receptor were used to assess the activity of compounds. Cultured cells were detached and resuspended in the cAMP Homogeneous Time-Resolved Fluorescence (HTRF) assay buffer (Cisbio cat; #62AM4PEJ). […] Serial dilutions of a compound together with assay buffer containing […] and 2 μM forskolin were added to each well containing 5,000 cells and incubated for 30 minutes at room temperature. Subsequently, cAMP D2 reagent was added in the lysis buffer followed by the EuK antibody (Cisbio; cat #62AM4PEJ) and incubated for 60 min. The fluorescence emission ratio was measured using fluorometer. The intracellular cAMP concentrations (compound-stimulated inhibition of forskolin-mediated cAMP production) were calculated by extrapolation from a standard curve using known cAMP concentrations. The EC50 values were obtained by fitting the data to a sigmoidal concentration-response curve with variable slope.
The EC50 value of each compound is presented at the end of the example description.
The biological activity of the exemplified compounds of this invention determined by the assay described above is shown at the end of each example.
By EC50 is commonly meant the midpoint of the concentration-response curve. `CCCCc1[nH]c(=O)c(C(=O)N2CC[C@H](c3ccccc3)C2)c(O)c1-c1c(OC)cccc1OC` [Example 28, 6-butyl-5-(2,6-dimethoxyphenyl)-3-[(3R)-3-phenylpyrrolidine-1-carbonyl]pyridine-2,4-diol] returned an EC50 of 0.01 to 10 nM.

The experiment is the same for the next values; noted with them: Table 1; HEK293 cells stably expressing human APJ, forskolin-stimulated cAMP; read-out: APJ cAMP EC50.
As for `CCCCc1nc(O)c(C(=O)N2CCN(c3ccccn3)CC2)c(O)c1-c1c(OC)cccc1OC` [Example 59], the EC50 is 10 to 100 nM. Still for that read-out and setting: the figure for `CCCCc1nc(O)c(C(=O)N2CCN(c3ccc(Cl)cn3)CC2)c(O)c1-c1c(OC)cccc1OC` [Example 6, 6-butyl-3-[4-(5-chloropyridin-2-yl)piperazine-1-carbonyl]-5-(2,6-dimethoxyphenyl)pyridine-2,4-diol] is 10 to 100 nM. The same measure, in the same setting: with `CCCCc1nc(O)c(C(=O)N2CCN(c3nccc(C(F)(F)F)n3)CC2)c(O)c1-c1c(OC)cccc1OC` [Example 13, 6-butyl-5-(2,6-dimethoxyphenyl)-3-{4-[4-(trifluoromethyl)pyrimidin-2-yl]piperazine-1-carbonyl}pyridine-2,4-diol] the figure was 10 to 100 nM. On the same count and under the same terms, the figure for `CCCCc1nc(O)c(C(=O)N2CCN(Cc3ccc(Cl)cc3)CC2)c(O)c1-c1c(OC)cccc1OC` [Example 31, 6-butyl-3-{4-[(4-chlorophenyl)methyl]piperazine-1-carbonyl}-5-(2,6-dimethoxyphenyl)pyridine-2,4-diol] is 0.01 to 10 nM; for `CCCCc1nc(O)c(C(=O)N2CCC3(CC2)OCc2ccccc23)c(O)c1-c1c(OC)cccc1OC` [Example 64, 6-butyl-5-(2,6-dimethoxyphenyl)-3-({3H-spiro[2-benzofuran-1,4′-piperidine]-1′-yl}carbonyl)pyridine-2,4-diol] it is 10 to 100 nM. Consider `CCCCc1nc(O)c(C(=O)N2CC(c3cccc(Cl)c3)C2)c(O)c1-c1c(OC)cccc1OC` [Example 34, 6-butyl-3-[3-(3-chlorophenyl)azetidine-1-carbonyl]-5-(2,6-dimethoxyphenyl)pyridine-2,4-diol], for which the EC50 lay in the range of 0.01 to 10 nM. On the same count and under the same terms, the figure for `CCCCc1nc(O)c(C(=O)N2CCC(c3c[nH]cn3)CC2)c(O)c1-c1c(OC)cccc1OC` [Example 55, 6-butyl-5-(2,6-dimethoxyphenyl)-3-[4-(1H-imidazol-4-yl)piperidine-1-carbonyl]pyridine-2,4-diol] is 10 to 100 nM. Same read-out and setting: the figure for `CCCCc1nc(O)c(C(=O)N2CCC3(CC2)OC(=O)Nc2ccccc23)c(O)c1-c1c(OC)cccc1OC` [Example 50, 1′-[6-butyl-5-(2,6-dimethoxyphenyl)-2,4-dihydroxypyridine-3-carbonyl]-1,2-dihydrospiro[3,1-benzoxazine-4,4′-piperidine]-2-one] is 10 to 100 nM; for `CCCCc1nc(O)c(C(=O)N2CCC(c3nc4ccccc4o3)CC2)c(O)c1-c1c(OC)cccc1OC` [Example 32, 3-[4-(1,3-benzoxazol-2-yl)piperidine-1-carbonyl]-6-butyl-5-(2,6-dimethoxyphenyl)pyridine-2,4-diol] it is 10 to 100 nM; for `CCCCc1nc(O)c(C(=O)N2CCC(c3ccc(C(N)=O)cc3)CC2)c(O)c1-c1c(OC)cccc1OC` [Example 24, 4-{1-[6-butyl-5-(2,6-dimethoxyphenyl)-2,4-dihydroxypyridine-3-carbonyl]piperidin-4-yl}benzamide] it is 10 to 100 nM. On the same count and under the same terms, with `CCCCc1nc(O)c(C(=O)N2CCN(c3nsc4ccccc34)CC2)c(O)c1-c1c(OC)cccc1OC` [Example 49, 3-[4-(1,2-benzothiazol-3-yl)piperazine-1-carbonyl]-6-butyl-5-(2,6-dimethoxyphenyl)pyridine-2,4-diol] the figure was 0.01 to 10 nM; with `CCCCc1nc(O)c(C(=O)N2CCC(c3nc(-c4cccnc4)no3)CC2)c(O)c1-c1c(OC)cccc1OC` [Example 69, 6-butyl-5-(2,6-dimethoxyphenyl)-3-{4-[3-(pyridin-3-yl)-1,2,4-oxadiazol-5-yl]piperidine-1-carbonyl}pyridine-2,4-idiol], 10 to 100 nM; with `CCCCc1nc(O)c(C(=O)N2CCN(c3nnnn3-c3ccccc3)CC2)c(O)c1-c1c(OC)cccc1OC` [Example 52, 6-butyl-5-(2,6-dimethoxyphenyl)-3-[4-(1-phenyl-1H-1,2,3,4-tetrazol-5-yl)piperazine-1-carbonyl]pyridine-2,4-diol], 0.01 to 10 nM.

The experiment is the same for the next values; noted with them: Table 3; HEK293 cells stably expressing human APJ, forskolin-stimulated cAMP; read-out: APJ cAMP EC50.
With `COc1cccc(OC)c1-c1c(-c2ccc(F)cc2)nc(O)c(C(=O)N2CCC(c3ncc(F)cc3F)C2)c1O` (stereo not drawn) [Example 87, (3-(3,5-difluoropyridin-2-yl)pyrrolidin-1-yl)(5-(2,6-dimethoxyphenyl)-6-(4-fluorophenyl)-2,4-dihydroxypyridin-3-yl)methanone], the EC50 is 0.01 to 10 nM.

Still in this experiment, the particulars now being: Table 4; HEK293 cells stably expressing human APJ, forskolin-stimulated cAMP; read-out: Human cAMP EC50.
For `CCCCc1nc(O)c(C(=O)N2CCN(CC3CC3)CC2)c(O)c1-c1c(OC)cccc1OC` [Example 111], the EC50 is 10 to 100 nM.

For `CCCCc1nc(O)c(C(=O)N2CCN(C(=O)c3cccc(F)c3F)CC2)c(O)c1-c1c(OC)cccc1OC` [Example 119, 6-butyl-3-[4-(2,3-difluorobenzoyl)piperazine-1-carbonyl]-5-(2,6-dimethoxyphenyl)pyridine-2,4-diol], the EC50 lay within 0.01 to 10 nM. Regarding `CCCCc1nc(O)c(C(=O)N2CCN(Cc3cccc(Cl)c3Cl)CC2)c(O)c1-c1cccc(OC)c1OC` [Example 112, 6-butyl-3-{4-[(2,3-dichlorophenyl)methyl]piperazine-1-carbonyl}-5-(2,3-dimethoxyphenyl)pyridine-2,4-diol], the half-maximal effective concentration (EC50) was 0.01 to 10 nM. On to `CCCCc1nc(O)c(C(=O)N2CC(Oc3ncccc3F)C2)c(O)c1-c1c(OC)cccc1OC` [Example 115, 6-butyl-5-(2,6-dimethoxyphenyl)-3-{3-[(3-fluoropyridin-2-yl)oxy]azetidine-1-carbonyl}pyridine-2,4-diol], for which the EC50 was 0.01 to 10 nM.

For the compound `CCCCc1nc(O)c(C(=O)N2CCN(Cc3cccc(F)c3F)CC2)c(O)c1-c1cccc(OC)c1OC` [Example 154, 6-butyl-3-{4-[(2,3-difluorophenyl)methyl]piperazine-1-carbonyl}-5-(2,3-dimethoxyphenyl)pyridine-2,4-diol], the EC50 is 0.01 to 10 nM.

The experiment is the same for the next values; noted with them: Table 5; HEK293 cells stably expressing human APJ, forskolin-stimulated cAMP; read-out: Human cAMP EC50.
Consider `COc1cccc(-c2c(-c3csc(C)n3)nc(O)c(C(=O)N3CCC(c4ncc(F)cc4F)C3)c2O)c1` (stereo not drawn) [Example 128, 3-[3-(3,5-difluoropyridin-2-yl)pyrrolidine-1-carbonyl]-5-(3-methoxyphenyl)-6-(2-methyl-1,3-thiazol-4-yl)pyridine-2,4-diol], for which the EC50 lay within 10 to 100 nM.

Turning to `COc1cccc(-c2c(-c3csc(C)n3)nc(O)c(C(=O)N3CCC(c4ncc(F)cc4F)C3)c2O)c1` (stereo not drawn) [Example 129, 3-[3-(3,5-difluoropyridin-2-yl)pyrrolidine-1-carbonyl]-5-(3-methoxyphenyl)-6-(2-methyl-1,3-thiazol-4-yl)pyridine-2,4-diol], the concentration giving a half-maximal response (EC50) was 0.01 to 10 nM.

The experiment is the same for the next values; noted with them: Table 6; HEK293 cells stably expressing human APJ, forskolin-stimulated cAMP; read-out: Human cAMP EC50.
In the case of `CCOCc1nc(O)c(C(=O)N2CCC(c3c(F)cccc3F)C2)c(O)c1-c1c(OC)cccc1OC` (stereo not drawn) [Example 134, 3-[3-(2,6-difluorophenyl)pyrrolidine-1-carbonyl]-5-(2,6-dimethoxyphenyl)-6-(ethoxymethyl)-4-hydroxy-1,2-dihydropyridin-2-one], the EC50 lay in the range of 0.01 to 10 nM.

Staying with this experiment, now noted: Table 7; HEK293 cells stably expressing human APJ, forskolin-stimulated cAMP; read-out: Human cAMP EC50.
As to `CCCCc1nc(O)c(C(=O)N2CCC(c3ncc(F)cc3F)C2)c(O)c1-c1cccc(C(=O)NC(C)C)c1` (stereo not drawn) [Example 145, 3-{2-butyl-5-[3-(3,5-difluoropyridin-2-yl)pyrrolidine-1-carbonyl]-4,6-dihydroxypyridin-3-yl}-N-(propan-2-yl)benzamide], the EC50 lay within 0.01 to 10 nM. The same measure, in the same setting: the figure for `CCCCc1nc(O)c(C(=O)N2CCC(c3ncc(F)cc3F)C2)c(O)c1-c1cccc(C(=O)NC(C)C)c1` (stereo not drawn) [Example 146, 3-{2-butyl-5-[3-(3,5-difluoropyridin-2-yl)pyrrolidine-1-carbonyl]-4,6-dihydroxypyridin-3-yl}-N-(propan-2-yl)benzamide] is 0.01 to 10 nM; for `CCCCc1nc(O)c(C(=O)N2CCC(c3ncc(F)cc3F)C2)c(O)c1-c1cccc(CO)c1` (stereo not drawn) [Example 147, 6-butyl-3-[3-(3,5-difluoropyridin-2-yl)pyrrolidine-1-carbonyl]-5-[3-(hydroxymethyl)phenyl]pyridine-2,4-diol] it is 0.01 to 10 nM.

The experiment is the same for the next values; noted with them: Table 8; HEK293 cells stably expressing human APJ, forskolin-stimulated cAMP; read-out: Human cAMP EC50.
Consider `CCNCc1nc(O)c(C(=O)N2CCC(c3ccccc3F)C2)c(O)c1-c1c(OC)cccc1OC` (stereo not drawn) [Example 151, 5-(2,6-dimethoxyphenyl)-6-[(ethylamino)methyl]-3-[3-(2-fluorophenyl)pyrrolidine-1-carbonyl]pyridine-2,4-diol], for which the EC50 fell in the range of 10 to 100 nM.
